According to patent publication US12144792B2, “Therapeutic agents for neurodegenerative diseases” (priority 2016, dated 2024):

Legend:
[1] = tested on: Npc1^−/− (BALB/cNctr-Npc1^m1N) mouse; assay: Coat condition and disease indications by observation; type: in vivo
Text: Separate groups of Npc1^-/- and Npc1^+/+ mice were left untreated, as controls.

[2] = tested on: patients with multiple system atrophy Parkinson type (MSA-P); assay: Case studies, clinical examination; type: in vivo, human
Text: Medication was stopped. […] The patient evaluated after one month on acetyl-DL-leucine. […] Episodes of mental confusion completely disappeared. The patient's cognitive structure seemed much clearer and straighter. […] The patient's spouse supported continuing the medication.

[3] = tested on: patient with frontotemporal dementia with parkinsonism; assay: Case study, clinical examination; type: in vivo, human
Text: After approximately one month of acetyl-leucine treatment, medication was stopped and the patient was re-examined 13 days later.

[4] = tested on: Hexb^−/− mouse (Sandhoff disease model); assay: Bar crossing test; type: in vivo
Text: This study made use of a mouse model of Sandhoff disease, the Hexb^−/− mouse, as described in Jeyakumar et al. (Jeyakumar, M. et al. (1999) Proc. Natl. Acad. Sci. USA 96: 6388-6393). The bar crossing test is a method for assessing motor function in mice in which the mouse is placed hanging from the centre of a horizontal bar by its front limbs. A wild-type mouse with normal motor function will be able to engage its hind limbs and thereby move to one of the platforms at either end of the bar, and in doing so complete the test. […] In FIG. 7B, acetyl-leucine treatment of 0.1 g/kg body weight was provided from 3 weeks of age. The acetyl-leucine treated Sandhoff mice retained the ability to complete the test up to 13 weeks of age (inclusive). Data shown is the mean of 6 mice per group. The treated Sandhoff mice retained the ability to complete the test up to 13 weeks of age (inclusive).

[5] = tested on: patients with ataxia telangiectasia; assay: Case studies, SARA, SCAFI, visual analog scale and reports; type: in vivo, human
Text: For example, to evaluate overall neurological status, mDRS, a four-domain scale (ambulation, manipulation, language and swallowing), may be applied. Cerebellar function may be evaluated using SARA, an eight-item clinical rating scale (gait, stance, sitting, speech, fine motor function and taxis; range 0-40, where 0 is the best neurological status and 40 the worst), and SCAFI, comprising the 8-m-Walking-Time (8MW; performed by having patients walking twice as quickly as possible from one line to another excluding turning), 9-Hole-Peg-Test (9HPT) and the number of “PATA” repetitions over 10 s. Subjective impairment and quality of life may be evaluated using the EQ-5D-5L questionnaire and VAS. To assess ocular motor function, 3-dimensional videooculography (EyeSeeCam) may be used to measure the peak velocity of saccades, gain of smooth pursuit, peak slow phase velocity of gaze-evoked nystagmus (gaze-holding function), peak slow phase velocity of optokinetic nystagmus, and gain of horizontal vestibulo-ocular reflex. To evaluate the cognitive state, WAIS-R or WISC-W, and MoCA, assessing different cognitive domains, including attention and concentration, executive functions, memory, language, visuoconstructional skills, conceptual thinking, calculations, and orientation with a maximum of 30 points and a cut-off score of 26, may be used. The skilled person will know how to perform these and other such tests.
After one month of treatment, the patient was re-evaluated. […] Examination indicated a Scale for Assessment and Rating of Ataxia (SARA) score of 15.5/40. Results from the patient's Spinocerebellar Ataxia Functional Index (SCAFI) analysis were: • Mean 8-meters Walking Test (8MW): 18.5 s • MW 9-Hole Pegboard Test Dominant (9HPTD) (right): 77.9 s • MW 9-Hole Pegboard Test Non-Dominant (9HPTND): 101.3 s • MW PATA Word Test: 13 • Visual analog scale (as evaluated by the patient): 85
After one month of treatment, the patient was re-evaluated. […] Examination indicated a Scale for Assessment and Rating of Ataxia (SARA) score of 23.5/40.
After slightly over 7 months of treatment, the patient was re-evaluated. […] Examination indicated a Scale for Assessment and Rating of Ataxia (SARA) score of 21.5/40.
After slightly over 1 month of treatment, the patient was re-evaluated. […] The patient also reported that drinking was easier and no longer needed a straw. […] Examination indicated a Scale for Assessment and Rating of Ataxia (SARA) score of 18.5/40.
After about 1 month of treatment, the patient was re-evaluated. […] On medication, they were able to walk with only holding the caregiver's hand.
The patient was evaluated after one month and six months of treatment, respectively. […] The patient, however, was suffering from anxiety, which would be expected to negatively influence the response.

[6] = tested on: Sandhoff disease patient fibroblasts; assay: Glycosphingolipid (GSL) levels via HPLC; type: cell-based, human; conditions: 1 mM for 6 days
[7] = tested on: Npc1^−/− mice; assay: Weight data; type: in vivo, mouse; conditions: 0.1 g/kg from weaning, vs untreated group
Text: Separate groups of Npc1^−/− and Npc1^+/+ mice were left untreated, as controls. Animals were weighed twice a week. Weights were averaged (mean) across all mice in each group and compared.

[8] = Ex. 15 Patient 2, after one month
[9] = Ex. 15 Patient 3, after slightly over 7 months
[10] = Ex. 15 Patient 4, after slightly over 1 month
[11] = Ex. 15 Patient 5, after almost 7 months

## CC(=O)NC(CC(C)C)C(=O)O (racemic) [acetyl-DL-leucine]
[1]; Npc1−/− mice treated from weaning, untreated show it from 5-6 weeks of age
  onset of discernible indication of disease: did not display such symptoms until two or more weeks later
[1]; Npc1−/− mice, 0.1 g/kg in chow from weaning, nine weeks of age
  coat condition: smooth and glossy coat
[2]; Ex. 13 Patient 1, MSA-P, 3 g/day first week, 5 g/day thereafter, after 3 weeks
  symptoms: no significant improvement of gait, reduction of falls or improved hypokinetic rigid-syndrome
[2]; Ex. 13 Patient 2, MSA-P, 3 then 5 g per day, after one month
  symptoms: subjective improvement of dizziness
[2]; Ex. 13 Patient 3, MSA-P, 3 then 5 g per day, after one month, reported by the patient's spouse
  cognitive function: significant improvement of cognitive function
[2]; Ex. 13 Patient 3, MSA-P, after one month
  gait function: no improvement of gait function
[3]; Ex. 9, frontotemporal dementia with parkinsonism, 3 then 5 gram per day, approximately one month
  gait: significant improvement of gait
[3]; Ex. 9, under therapy
  speech: improvement of speech
[3]; Ex. 9, under therapy, before 2-3 falls per month
  falls: the patient's falls stopped
[4]; Sandhoff mice, 0.1 g/kg from 3 weeks of age, inclusive
  age up to which the ability to complete the bar crossing test was retained: up to 13 weeks of age
[4]; Sandhoff mouse, 0.1 g/kg body weight from 3 weeks of age
  motor function in bar-crossing test: improved motor function and hind-limb mobility/engagement
[5]; Ex. 15 Patient 1, after one month
  caregivers' report: improvement of speech and gait
[5]; Ex. 15 Patient 1, after one month, before 12.5
  MW PATA Word Test: 13
[5]; [8]
  Mean 8-meters Walking Test (8MW): not able to perform without support
  caregivers' report: improvement of fine motor function, hand tremor, and speech
[5]; Ex. 15 Patient 2, after one month, before 13.5
  MW PATA Word Test: 14
[5]; Ex. 15 Patient 2, after one month, before 299.2 s
  MW 9-Hole Pegboard Test Non-Dominant (9HPTND): 300 s
[5]; Ex. 15 Patient 2, after one month, before 300 s
  MW 9-Hole Pegboard Test Dominant (9HPTD) (right): 300 s
[5]; [9]
  Mean 8-meters Walking Test (8MW): not able to perform
  caregivers' and patient's report: general improvement of well-being
[5]; Ex. 15 Patient 3, after slightly over 7 months, before 14
  MW PATA Word Test: 10
[5]; [10]
  Mean 8-meters Walking Test (8MW): not able to perform
  patient's and parent's report: improvement in handwriting
[5]; Ex. 15 Patient 5, ataxia telangiectasia, 5 g/day, after about 1 month
  mother's report: significant improvement of stability of the gait
[5]; Ex. 15 Patient 5, after about 1 month
  Mean 8-meters Walking Test (8MW): not able to walk without support
[5]; Ex. 15 Patient 5, after about 1 month, before 6
  MW PATA Word Test: 7.5
[5]; [11]
  MW PATA Word Test: 11
  mother's report: significantly more stable gait
[5]; Ex. 15 Patient 5, after slightly over a year
  clinical re-evaluation: improved social interaction, activity, and agility
[5]; Ex. 15 Patient 6, ataxia telangiectasia, 1.5 then 3 g/day, after one month
  symptoms: increased fine motor skills with reduced hand tremor
[5]; Ex. 15 Patient 6, after six months
  symptoms: stable general conditions, stable gait and stance, and improved handwriting
[6]
  GSL levels: trend towards decreased GSL levels
[7]
  delay of weight loss symptoms: delayed these weight loss symptoms by two weeks
